ChEMBL document CHEMBL6177936, “Stachydrine, a pyrrole alkaloid with promising therapeutic potential against metabolic syndrome and associated organ dysfunction” (RSC Med Chem, 2024)

Key:
[1] = Cmax in Wistar rat at 10 mg/kg, iv measured for 24 hrs by LC-MS/MS analysis; assay type: ADME, organism-based; conditions: in vivo
[2] = Half life in CSBS-PD induced Sprague-Dawley rat at 15.28 mg/kg, po incubated for 24 hrs by LC-MS/MS analysis; assay type: ADME, organism-based; conditions: in vivo
[3] = Half life in Wistar rat at 166.3 mg/kg, po; assay type: ADME, organism-based; conditions: in vivo
[4] = Cmax in Wistar rat at 166.3 mg/kg, po; assay type: ADME, organism-based; conditions: in vivo
[5] = AUC (0 to infinity) in Wistar rat at 166.3 mg/kg, po; assay type: ADME, organism-based; conditions: in vivo
[6] = AUC (0 to infinity) in Wistar rat at 10 mg/kg, iv measured for 24 hrs by LC-MS/MS analysis; assay type: ADME, organism-based; conditions: in vivo
[7] = Clearance in Wistar rat at 10 mg/kg, iv measured for 24 hrs by LC-MS/MS analysis; assay type: ADME, organism-based; conditions: in vivo
[8] = Tmax in KYDS rat at 1 g/Kg, IG by LC-MS/MS analysis; assay type: ADME; conditions: in vivo, po, 1000 mg/kg
[9] = Half life in KYDS rat at 1 g/Kg, IG by LC-MS/MS analysis; assay type: ADME; conditions: in vivo, po, 1000 mg/kg
[10] = Half life in Sprague-Dawley rat at 9.86 mg/kg, po by UPLC-MS/MS analysis; assay type: ADME, organism-based; conditions: in vivo
[11] = AUC(0 to infinity) in KYDS rat at 1 g/Kg, IG by LC-MS/MS analysis; assay type: ADME; conditions: in vivo, po, 1000 mg/kg
[12] = Tmax in Sprague-Dawley rat at 9.86 mg/kg, po by UPLC-MS/MS analysis; assay type: ADME, organism-based; conditions: in vivo
[13] = AUC (0 to infinity) in Sprague-Dawley rat at 9.86 mg/kg, po by UPLC-MS/MS analysis; assay type: ADME, organism-based; conditions: in vivo
[14] = Cmax in Sprague-Dawley rat at 9.86 mg/kg, po by UPLC-MS/MS analysis; assay type: ADME, organism-based; conditions: in vivo
[15] = AUC(infinity) in CSBS-PD induced Sprague-Dawley rat at 15.28 mg/kg, po incubated for 24 hrs by LC-MS/MS analysis; assay type: ADME, organism-based; conditions: in vivo
[16] = MRT (0 to infinity) in Wistar rat at 166.3 mg/kg, po; assay type: ADME, organism-based; conditions: in vivo
[17] = Tmax in Wistar rat at 166.3 mg/kg, po; assay type: ADME, organism-based; conditions: in vivo
[18] = Cmax in CSBS-PD induced Sprague-Dawley rat at 15.28 mg/kg, po incubated for 24 hrs by LC-MS/MS analysis; assay type: ADME, organism-based; conditions: in vivo
[19] = Tmax in CSBS-PD induced Sprague-Dawley rat at 15.28 mg/kg, po incubated for 24 hrs by LC-MS/MS analysis; assay type: ADME, organism-based; conditions: in vivo
[20] = MRT(infinity) in CSBS-PD induced Sprague-Dawley rat at 15.28 mg/kg, po incubated for 24 hrs by LC-MS/MS analysis; assay type: ADME, organism-based; conditions: in vivo
[21] = MRT (0 to infinity) in KYDS rat at 1 g/Kg, IG by LC-MS/MS analysis; assay type: ADME; conditions: in vivo, po, 1000 mg/kg
[22] = Apparent oral clearance in KYDS rat at 1 g/Kg, IG by LC-MS/MS analysis; assay type: ADME; conditions: in vivo, 1000 mg/kg
[23] = Cmax in KYDS rat at 1 g/Kg, IG by LC-MS/MS analysis; assay type: ADME; conditions: in vivo, po, 1000 mg/kg
[24] = Half life in Sprague-Dawley rat at 15.28 mg/kg, po incubated for 24 hrs by LC-MS/MS analysis; assay type: ADME, organism-based; conditions: in vivo
[25] = MRT (0 to infinity) in Sprague-Dawley rat at 9.86 mg/kg, po by UPLC-MS/MS analysis; assay type: ADME, organism-based; conditions: in vivo

Question: What does the source list for `C[N+]1(C)CCC[C@H]1C(=O)[O-]`?
Answer: Cmax [1]: 6.4 µg/mL; half-life [2]: 5.51 h; half-life [3]: 1.64 h; Cmax [4]: 1.61 µg/mL; AUC(0-inf) [5]: 2.9 µg·h/mL; AUC [6]: 12026.7 h/ng/mL; clearance [7]: 0.93 L/h/kg; Tmax [8]: 1.08 h; half-life [9]: 6.59 h; half-life [10]: 3.79 h; AUC [11]: 1279.31 µg/L/h; Tmax [12]: 1.5 h; AUC(0-inf) [13]: 2.8 µg·h/mL; Cmax [14]: 0.673 µg/mL; AUC [15]: 99.24 µg·h/mL; MRT inf [16]: 1.67 h; Tmax [17]: 0.75 h; Cmax [18]: 14 µg/mL; Tmax [19]: 2.83 h; MRT inf [20]: 9.97 h; MRT inf [21]: 9.21 h; CL/F [22]: 0.06 L/h/kg; Cmax [23]: 0.135 µg/mL; half-life [24]: 3.89 h; MRT inf [25]: 4.44 h
